Values quoted from earlier work as cited in patent US5705486A, “Isolation of novel peptides from green barley leaf extract and use same to inhibit human platelet aggregation” (Hagiwara; Yoshihide, priority 1996, dated 1998).

System: rat anterior pituitary cells
Conditions: in vitro

In the case of `Cc1c(C)c2c(c(C)c1OC(=O)CCC(=O)O)CC[C@@](C)(CCC[C@H](C)CCC[C@H](C)CCCC(C)C)O2` [α-tocopherol succinate], the “release of growth hormone and/or prolactin from rat anterior pituitary cells” value (Badamchian et al 1994) is listed as “enhances the release” and the “prolactin release from rat anterior pituitary cells” value (Badamchian et al 1995) is listed as “significant increase”.
